{
  "source": "ChEMBL document CHEMBL1135594",
  "about": "(J Med Chem, 2002)",
  "key": {"[1]": {"target": "T1, Histidine-rich protein PFHRP-II (Plasmodium falciparum, UniProt P05227)", "T1 sequence (P05227 whole entry)": "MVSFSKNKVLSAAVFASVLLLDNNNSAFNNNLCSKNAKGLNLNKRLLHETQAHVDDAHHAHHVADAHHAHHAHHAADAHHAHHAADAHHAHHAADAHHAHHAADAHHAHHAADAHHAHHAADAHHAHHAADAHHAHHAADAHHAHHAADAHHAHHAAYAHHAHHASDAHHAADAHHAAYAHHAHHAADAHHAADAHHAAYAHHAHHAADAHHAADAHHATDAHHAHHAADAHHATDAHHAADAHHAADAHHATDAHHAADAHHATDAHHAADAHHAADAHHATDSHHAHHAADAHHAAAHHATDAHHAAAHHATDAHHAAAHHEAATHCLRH", "experiment": "Inhibition of beta-hematin formation", "type": "functional"}, "Plasmodium falciparum [2]": {"test_system": "Plasmodium falciparum", "experiment": "microbe, parasite or virus in culture"}, "Plasmodium falciparum [3]": {"test_system": "Plasmodium falciparum", "experiment": "microbe, parasite or virus in culture", "remark": "listed apart in the source"}, "Plasmodium falciparum [4]": {"test_system": "Plasmodium falciparum", "experiment": "microbe, parasite or virus in culture", "remark": "listed apart in the source"}, "Plasmodium falciparum [5]": {"test_system": "Plasmodium falciparum", "experiment": "microbe, parasite or virus in culture", "remark": "listed apart in the source"}, "[6]": {"experiment": "Resistance factor as the ratio of IC50 against Plasmodium falciparum K1 to that of Plasmodium falciparum HB3.", "type": "functional"}, "Plasmodium falciparum [7]": {"test_system": "Plasmodium falciparum", "experiment": "Inhibition of chloroquine uptake from intact parasites; Not active", "type": "functional, organism-based"}, "Plasmodium falciparum [8]": {"test_system": "Plasmodium falciparum", "experiment": "Displacement of chloroquine from Fe(3+) FPIX-loaded membrane", "type": "functional"}},
  "note": "Active and inactive are the calls of the source. The rule behind the calls is not given here.",
  "data": [
    {"smiles": "CC(C)(C)NCCNc1ccnc2cc(Cl)ccc12", "values": [
      {"measurement": "IC50", "setting": "[1]", "result": 70000, "unit": "nM"},
      {"measurement": "IC50", "setting": "Plasmodium falciparum [2]", "result": 710, "unit": "nM"},
      {"measurement": "IC50", "setting": "Plasmodium falciparum [3]", "result": 4.3, "unit": "nM"},
      {"measurement": "IC50", "setting": "Plasmodium falciparum [4]", "result": 3940, "unit": "nM"},
      {"measurement": "IC50", "setting": "Plasmodium falciparum [5]", "result": 15.3, "unit": "nM"}
    ]},
    {"smiles": "Clc1ccc2c(NCCN3CCCC3)ccnc2c1", "values": [
      {"measurement": "IC50", "setting": "[1]", "result": 78000, "unit": "nM"},
      {"measurement": "IC50", "setting": "Plasmodium falciparum [2]", "result": 1620, "unit": "nM"},
      {"measurement": "IC50", "setting": "Plasmodium falciparum [3]", "result": 6.8, "unit": "nM"},
      {"measurement": "IC50", "setting": "Plasmodium falciparum [4]", "result": 5940, "unit": "nM"},
      {"measurement": "IC50", "setting": "Plasmodium falciparum [5]", "result": 13.2, "unit": "nM"}
    ]},
    {"smiles": "Clc1ccc2c(NCCN3CCCCC3)ccnc2c1", "values": [
      {"measurement": "IC50", "setting": "[1]", "result": 86000, "unit": "nM"},
      {"measurement": "IC50", "setting": "Plasmodium falciparum [2]", "result": 910, "unit": "nM"},
      {"measurement": "IC50", "setting": "Plasmodium falciparum [3]", "result": 6.8, "unit": "nM"},
      {"measurement": "IC50", "setting": "Plasmodium falciparum [4]", "result": 7650, "unit": "nM"},
      {"measurement": "IC50", "setting": "Plasmodium falciparum [5]", "result": 13, "unit": "nM"}
    ]},
    {"smiles": "FC(F)(F)c1ccc2c(NCCN3CCCCC3)ccnc2c1", "values": [
      {"measurement": "Resistance factor", "setting": "[6]", "result": 2.09},
      {"measurement": "IC50", "setting": "[1]", "result": 65000, "unit": "nM"},
      {"measurement": "IC50", "setting": "Plasmodium falciparum [2]", "result": 2030, "unit": "nM"},
      {"measurement": "IC50", "setting": "Plasmodium falciparum [3]", "result": 10.6, "unit": "nM"},
      {"measurement": "IC50", "setting": "Plasmodium falciparum [4]", "result": 8390, "unit": "nM"},
      {"measurement": "IC50", "setting": "Plasmodium falciparum [5]", "result": 22.2, "unit": "nM"}
    ]},
    {"smiles": "Clc1ccc2c(NCCN3CCOCC3)ccnc2c1", "values": [
      {"measurement": "IC50", "setting": "[1]", "result": 102000, "unit": "nM"},
      {"measurement": "IC50", "setting": "Plasmodium falciparum [3]", "result": 150, "unit": "nM"},
      {"measurement": "IC50", "setting": "Plasmodium falciparum [4]", "result": 24900, "unit": "nM"},
      {"measurement": "IC50", "setting": "Plasmodium falciparum [5]", "result": 240, "unit": "nM"},
      {"measurement": "NA", "setting": "Plasmodium falciparum [7]", "result": "inactive"}
    ]},
    {"smiles": "CCN(CC)CCCC(C)Nc1ccnc2cc(Cl)ccc12", "note": "(stereo not drawn)", "values": [
      {"measurement": "Resistance factor", "setting": "[6]", "result": 10}
    ]},
    {"smiles": "CC(C)(C)NCCNc1ccnc2cc(C(F)(F)F)ccc12", "values": [
      {"measurement": "Resistance factor", "setting": "[6]", "result": 1.78},
      {"measurement": "IC50", "setting": "[1]", "result": 71000, "unit": "nM"},
      {"measurement": "IC50", "setting": "Plasmodium falciparum [2]", "result": 2090, "unit": "nM"},
      {"measurement": "IC50", "setting": "Plasmodium falciparum [3]", "result": 5.5, "unit": "nM"},
      {"measurement": "IC50", "setting": "Plasmodium falciparum [5]", "result": 9.8, "unit": "nM"},
      {"measurement": "IC50", "setting": "Plasmodium falciparum [8]", "result": 4960, "unit": "nM"}
    ]}
  ]
}
